According to patent publication US9809542B2, “Spiroheterocyclically substituted tetramic acid derivatives” (BAYER INTELLECTUAL PROPERTY GMBH, priority 2010, dated 2017):

Key:
Format in all cases: in vivo
[1] = test system: green peach aphid (Myzus persicae); assay: Myzus test (MYZUPE spray treatment); conditions: application rate 500 g/ha, Chinese cabbage leaf discs, after 6 days
Description: Myzus Test (MYZUPE Spray Treatment)
Solvents: 78 parts by weight of acetone
(§1) • 1.5 parts by weight of dimethylformamide Emulsifier: 0.5 part by weight of alkylaryl polyglycol ether
To produce a suitable preparation of active compound, 1 part by weight of active compound is mixed with the stated amounts of solvents and emulsifier, and the concentrate is diluted with emulsifier-containing water to the desired concentration. Discs of Chinese cabbage (Brassica pekinensis) which are infested by all stages of the green peach aphid (Myzus persicae) are sprayed with an active compound preparation of the desired concentration. After 6 days, the effect in % is determined. 100% means that all aphids have been killed; 0% means that none of the aphids have been killed.

[2] = test system: caterpillars of the armyworm (Spodoptera frugiperda); assay: Spodoptera frugiperda test (SPODFR spray treatment); conditions: application rate 500 g/ha, maize leaf discs, after 7 days
Description: Spodoptera frugiperda Test (SPODFR Spray Treatment)
(§2) Solvents: 78.0 parts by weight of acetone
as §1
To produce a suitable preparation of active compound, 1 part by weight of active compound is mixed with the stated amounts of solvents and emulsifier, and the concentrate is diluted with emulsifier-containing water to the desired concentration. Discs of maize leaves (Zea mays) are sprayed with an active compound preparation of the desired concentration and, after drying, populated with caterpillars of the armyworm (Spodoptera frugiperda).
After 7 days, the effect in % is determined. 100% means that all caterpillars have been killed; 0% means that none of the caterpillars have been killed.

Lucilia cuprina larva = assay: Lucilia cuprina test (LUCICU); conditions: application rate 100 ppm; treated horse meat; after 2 days
Description: Lucilia cuprina Test (LUCICU)
Solvent: Dimethyl sulphoxide
To produce a suitable preparation of active compound, 10 mg of active compound are mixed with 0.5 ml of dimethyl sulphoxide and the concentrate is diluted with water to the desired concentration. Containers containing horse meat treated with the active compound preparation of the desired concentration are populated with about 20 Lucilia cuprina larva.
After 2 days, the kill in % is determined. 100% means that all larva have been killed; 0% means that none of the larva have been killed.

Echinocloa crus-galli [3] = assay: Herbicidal pre-emergence action; conditions: pre-emergence method, 320 g of a.i./ha; about 3 weeks
From the text: 1. Herbicidal Pre-Emergence Action
(§3) • Seeds of monocotyledonous and dicotyledonous weed and crop plants are placed in sandy loam in wood fibre pots and covered with soil. The test compounds, formulated in the form of wettable powders (WP), are then, as aqueous suspension with a water application rate of 600 l/ha (converted), with 0.2% of wetting agent added, applied to the surface of the covering soil in various dosages. • After the treatment, the pots are placed in a greenhouse and kept under good growth conditions for the test plants. The visual assessment of the emergence damage on the test plants is carried out after a trial period of about 3 weeks by comparison with untreated controls (herbicidal effect in %: 100% effect=the plants have died, 0% effect=like control plants). • In addition to the compounds mentioned above, the following compounds, applied by the pre-emergence method at 320 g of a.i./ha, show an efficacy of 90% against Lolium multiflorum and Setaria viridis: I-1-a-1 • In addition to the compounds mentioned above, the following compounds, applied by the pre-emergence method at 320 g of a.i./ha, show an efficacy of 100% against Echinocloa crus-galli: I-a-2, I-b-1, I-b-2, I-c-2 2. Herbicidal Post-Emergence Action • Seeds of monocotyledonous and dicotyledonous weed and crop plants are placed in sandy loam in wood fibre pots, covered with soil and cultivated in a greenhouse under good growth conditions. 2-3 weeks after sowing, the test plants are treated at the one-leaf stage. The test compounds, formulated as wettable powders (WP), are, in various dosages at a water application rate of 600 l/ha (converted), with 0.2% of wetting agent added, sprayed onto the green parts of the plants. After the test plants have been kept in the greenhouse under optimum growth conditions for about 3 weeks, the effect of the preparations is rated visually in comparison to untreated controls (herbicidal effect in %: 100% effect=the plants have died, 0% effect=like control plants). • In addition to the compounds mentioned above, the following compounds, applied by the post-emergence method at 80 g/ha, show an efficacy of 90% against Echinocloa crus-galli and Lolium multiflorum: I-a-3, I-a-4, I-a-5.

[4] = test system: greenhouse red spidermite (Tetranychus urticae); assay: Tetranychus test OP-resistant (TETRUR spray treatment); conditions: application rate 100 g/ha, bean leaf discs, after 6 days
Description: Tetranychus Test OP-Resistant (TETRUR Spray Treatment)
as §2, §1
To produce a suitable preparation of active compound, 1 part by weight of active compound is mixed with the stated amounts of solvents and emulsifier, and the concentrate is diluted with emulsifier-containing water to the desired concentration. Discs of bean leaves (Phaseolus vulgaris) which are infested by all stages of the greenhouse red spidermite (Tetranychus urticae) are sprayed with an active compound preparation of the desired concentration.
After 6 days, the effect in % is determined. 100% means that all spidermites have been killed; 0% means that none of the spidermites have been killed.

[5] = test system: larva of the mustard beetle (Phaedon cochleariae); assay: Phaedon test (PHAECO spray treatment); conditions: Chinese cabbage leaf discs, after 7 days
Description: Phaedon Test ([…] Spray Treatment) Solvents: 78.0 parts by weight of acetone • • 1.5 parts by weight of dimethylformamide Emulsifier: 0.5 part by weight of alkylaryl polyglycol ether To produce a suitable preparation of active compound, one part by weight of active compound is mixed with the stated amounts of solvents and emulsifier, and the concentrate is diluted with emulsifier-containing water to the desired concentration. Discs of Chinese cabbage (Brassica pekinensis) are sprayed with an active compound preparation of the desired concentration and, after drying, populated with larva of the mustard beetle (Phaedon cochleariae).

Lolium multiflorum = assay: Herbicidal post-emergence action; conditions: post-emergence method, 80 g/ha; about 3 weeks
From the text: as §3

Echinocloa crus-galli [6] = assay: Herbicidal post-emergence action; conditions: post-emergence method, 80 g/ha; about 3 weeks
From the text: as §3

SMILES | efficacy (effect in %, aphids killed) [1] | efficacy (effect in %, caterpillars killed) [2] | efficacy (effect in %, spidermites killed) [4] | also measured
CCOC(=O)OC1=C(c2c(C)ccc(-c3ccc(F)cc3)c2C)C(=O)NC12CCN(OCC)CC2 [I-c-2] | 100% | 100% | – | efficacy (kill in %) (Lucilia cuprina larva): 80%; efficacy (herbicidal effect in %) (Echinocloa crus-galli [3]): 100%
CON1CCC2(CC1)NC(=O)C(c1c(C)ccc(-c3ccc(Cl)c(F)c3)c1C)=C2O [I-a-15] | 100% | 100% | 100% | –
CCON1CCC2(CC1)NC(=O)C(c1cc(-c3ccc(F)cc3)ccc1C)=C2O [I-a-6] | 100% | 100% | 90% | efficacy (effect in %, beetle larva killed) ([5]; application rate 100 g/ha): 100%
CCOC(=O)OC1=C(c2c(OC)ccc(-c3ccc(F)cc3)c2Cl)C(=O)NC12CCN(OC)CC2 [I-c-3] | – | – | 90% | –
CCON1CCC2(CC1)NC(=O)C(c1c(C)ccc(-c3ccc(F)c(Cl)c3)c1C)=C2O [I-a-12] | 100% | 83% | 100% | –
CON1CCC2(CC1)NC(=O)C(c1cc(-c3ccc(F)cc3)ccc1C)=C2O [I-a-5] | 100% | 100% | 90% | efficacy (herbicidal effect in %) (Lolium multiflorum): 90%; efficacy (herbicidal effect in %) (Echinocloa crus-galli [6]): 90%
CCOC(=O)OC1=C(c2c(C)ccc(-c3ccc(F)cc3)c2C)C(=O)NC12CCN(OC)CC2 [I-c-1] | 100% | 100% | – | –
CCON1CCC2(CC1)NC(=O)C(c1c(OC)ccc(-c3ccc(F)cc3)c1Cl)=C2O [I-a-7] | 100% | – | 90% | –
CON1CCC2(CC1)NC(=O)C(c1c(C)ccc(-c3ccc(F)c(F)c3)c1C)=C2O [I-a-13] | 100% | – | 100% | –
CCON1CCC2(CC1)NC(=O)C(c1c(C)ccc(-c3ccc(F)c(F)c3)c1C)=C2O [I-a-11] | 100% | – | 100% | –
CCON1CCC2(CC1)NC(=O)C(c1cc(-c3ccc(F)cc3)ccc1Cl)=C2O [I-a-3] | 100% | 83% | 90% | efficacy (herbicidal effect in %) (Lolium multiflorum): 90%; efficacy (herbicidal effect in %) (Echinocloa crus-galli [6]): 90%; efficacy (effect in %, beetle larva killed) ([5]; application rate 500 g/ha): 100%
CCc1ccc(-c2ccc(F)cc2)c(C)c1C1=C(O)C2(CCN(OC)CC2)NC1=O [I-a-8] | 90% | – | 90% | efficacy (effect in %, beetle larva killed) ([5]; application rate 500 g/ha): 100%
CCON1CCC2(CC1)NC(=O)C(c1c(CC)ccc(-c3ccc(F)cc3)c1C)=C2O [I-a-9] | 90% | – | 90% | efficacy (effect in %, beetle larva killed) ([5]; application rate 500 g/ha): 100%
CON1CCC2(CC1)NC(=O)C(c1c(C)ccc(-c3ccc(F)cc3)c1C)=C2OC(=O)C(C)C [I-b-1] | 100% | 100% | – | efficacy (herbicidal effect in %) (Echinocloa crus-galli [3]): 100%
COc1ccc(-c2ccc(F)cc2)c(Cl)c1C1=C(O)C2(CCN(OC)CC2)NC1=O [I-a-10] | 100% | – | 90% | –
CON1CCC2(CC1)NC(=O)C(c1cc(-c3ccc(F)cc3)ccc1Cl)=C2O [I-a-4] | 100% | 83% | 100% | efficacy (herbicidal effect in %) (Lolium multiflorum): 90%; efficacy (herbicidal effect in %) (Echinocloa crus-galli [6]): 90%
CCON1CCC2(CC1)NC(=O)C(c1c(C)ccc(-c3ccc(F)cc3)c1C)=C2OC(=O)C(C)C [I-b-2] | 100% | 100% | – | efficacy (herbicidal effect in %) (Echinocloa crus-galli [3]): 100%
CCON1CCC2(CC1)NC(=O)C(c1c(C)ccc(-c3ccc(Cl)c(F)c3)c1C)=C2O [I-a-14] | 100% | 100% | 90% | –
